Source: patent US10286022B2, “Medicinal composition of extract of seed of emblica officinalis and method of preparing the same” (priority 2013, dated 2019)

Key:
[1] = system: cholesterol fed rabbits; assay: Hypolipidemic activity in cholesterol fed rabbits (Example 23); assay type: in vivo, rabbit
Protocol: The amla seed extract as prepared in example 1 was evaluated for hypolipidemic activity in experimental rabbits. Male NZ white rabbits weighing 1.5-2.0 kg were used for the experiment. They were housed in a temperature-controlled room (25±2° C.) in clean stainless steel cages with ‘12 h light and 12 h dark’ cycles and fed with normal pellet diet and water ad libitum.
(§1) After the acclimatization period of 10 days, blood samples were collected from marginal ear vein of all the rabbits. The blood was allowed to clot and then centrifuged at 3000 rpm for 10 min and the serum was carefully drawn and collected into separate tubes. The serum was analyzed for total cholesterol, triglycerides, high density lipoproteins (HDL), low density lipoproteins (LDL) and very low density lipoproteins (VLDL) levels using auto-analyzer.
After taking baseline lipid profile the animals were divided into four groups having six animals in each group. Following treatment was given to the animals for the three months:
Blood samples were collected from all the rabbits after 3 months of treatment and serum was analyzed for lipid profile. After blood collection the animals were sacrificed after injecting pentobarbitone and aorta was dissected out, washed with saline and preserved in 10% formalin for histopathology. The sections were cut using microtome and stained with heamatoxylin & eosin dye and mounted on glass slides. The slides were observed under microscope and aortic intima media thickness (IMT) was measured by histomorphometry.

[2] = system: Triton WR 1339 induced dyslipidemia in Albino rats (Sprague Dawley strain); assay: Hypolipidemic activity compared with other amla extracts, Triton WR 1339 model (Example 25); assay type: in vivo, rat
Protocol: Forty eight male Albino rats (Sprague Dawley strain) weighing approximate 250-300 gm were selected for the study. The animals were kept in the animal house maintained at temp 24±2° C., 65% relative humidity and 12 hr light/dark cycle. The rats were acclimatized for two weeks and during this period they had access to standard pellet diet and water ad libitum. After two weeks of acclimatization, all the rats were fasted overnight before injecting Triton WR 1339 (Tyloxapol) and administration of test extracts/standard. The animals were divided into twelve groups. Following treatment was given to overnight fasted rats: • Group I: Normal control (vehicle only). • Group II: Triton WR 1339 (300 mg/kg, intraperitoneal). • Group III: Triton WR 1339 (300 mg/kg, intraperitoneal) followed by ethyl acetate of methanol extract of amla seed prepared as per example 1 (2.5 mg/kg, per oral). • Group IV: Triton WR 1339 (300 mg/kg, intraperitoneal) followed by water part of methanol extract of amla seed prepared as per example 1 (2.5 mg/kg, per oral). • Group V: Triton WR 1339 (300 mg/kg, intraperitoneal) followed by ethyl acetate extract of amla seed prepared as per example 2 (2.5 mg/kg, per oral). • Group VI: Triton WR 1339 (300 mg/kg, intraperitoneal) followed by powder of dried amla seed prepared as per example 7 (2.5 mg/kg, per oral). • Group VII: Triton WR 1339 (300 mg/kg, intraperitoneal) followed by water extract of dried amla seed powder prepared as per example 8 (2.5 mg/kg, per oral). • Group VIII: Triton WR 1339 (300 mg/kg, intraperitoneal) followed by methanol extract of dried amla seed powder prepared as per example 9 (2.5 mg/kg, per oral). • Group IX: Triton WR 1339 (300 mg/kg, intraperitoneal) followed by powder of dried amla fruit prepared as per example 10 (2.5 mg/kg, per oral). • Group X: Triton WR 1339 (300 mg/kg, intraperitoneal) followed by water extract of dried Amla fruit powder prepared as per example 11 (2.5 mg/kg, per oral). • Group XI: Triton WR 1339 (300 mg/kg, intraperitoneal) followed by methanol extract of dried amla fruit powder prepared as per example 12 (2.5 mg/kg, per oral). • Group XII: Triton WR 1339 (300 mg/kg, intraperitoneal) followed by atorvastatin (2.5 mg/kg, per oral).
as §1, with “The animals were deprived of food for next 24 hours but had free access to water ad libitum. After” for “After”, “24 hour” for “the acclimatization period”, “drug treatment 2 ml” for “10 days,”, “from” for “from marginal ear vein of all”, “retro orbital plexus.” for “rabbits.”

[3] = after 3 months cholesterol 100 mg/kg + 10 mg/kg
[4] = 24 h after Triton i.p. + 2.5 mg/kg p.o.

CC(C)c1c(C(=O)Nc2ccccc2)c(-c2ccccc2)c(-c2ccc(F)cc2)n1CC[C@@H](O)C[C@@H](O)CC(=O)O [Atorvastatin]
effect on total cholesterol and triglyceride level ([1]; 10 mg/kg, 3 months, compared to untreated control group): decreased the total cholesterol and triglyceride level significantly
HDL After [1, 3]: 20.37 mg/dL
LDL After [1, 3]: 82.8 mg/dL
TC After [1, 3]: 118.9 mg/dL
TG After [1, 3]: 78.67 mg/dL
VLDL After [1, 3]: 15.73 mg/dL
Aortic intima media thickness ([1]; after 3 months cholesterol 100 mg/kg + 10 mg/kg, histomorphometry): 112.36 μm
HDL Before ([1]; baseline, 10 mg/kg group): 14.15 mg/dL
LDL Before ([1]; baseline, 10 mg/kg group): 27.88 mg/dL
TC Before ([1]; baseline, 10 mg/kg group): 53.69 mg/dL
TG Before ([1]; baseline, 10 mg/kg group): 58.28 mg/dL
VLDL Before ([1]; baseline, 10 mg/kg group): 11.66 mg/dL
effect on cholesterol and triglyceride levels ([2]; 2.5 mg/kg p.o.): effective in lowering the cholesterol as well as triglyceride levels
HDL After [2, 4]: 39.56 mg/dL
LDL After [2, 4]: 44.53 mg/dL
TC After [2, 4]: 123.14 mg/dL
TG After [2, 4]: 195.25 mg/dL
VLDL After [2, 4]: 39.05 mg/dL
HDL Before ([2]; baseline, 2.5 mg/kg p.o. group): 36.54 mg/dL
LDL Before ([2]; baseline, 2.5 mg/kg p.o. group): 57.99 mg/dL
TC Before ([2]; baseline, 2.5 mg/kg p.o. group): 104.44 mg/dL
TG Before ([2]; baseline, 2.5 mg/kg p.o. group): 49.54 mg/dL
VLDL Before ([2]; baseline, 2.5 mg/kg p.o. group): 9.91 mg/dL
